Patent US8652440B2, “Methods for diagnosing diseases and evaluating treatments therefor using PET” (The Trustees of Columbia University in the City of New York, priority 2007, dated 2014)
Read-outs that look alike come from different tables or passages of the source.

Molecular target: central M2 cholinergic receptors (Homo sapiens, UniProt P08172)
Conditions: mean of 11 subjects; for K1 (rate constant for transfer from plasma to the tissue) / VT (total distribution volume) / K2 (tissue clearance rate constant): 1TKA
Description: Synapse 49:150-156 (2003). […] Carson R E, Kiesewetter D O, Jagoda E, Der M G, Herscovitch P, Eckelman W C, Muscarinic cholinergic receptor measurements with [^18F]FP-TZTP: control and competition studies. […] J Nucl Med 40:30P (1999).
Step 1: To calculate group mean parameter values that can be used for computer simulation analysis, ROI TACs were fitted by one-tissue kinetic analysis “1TKA” using individual metabolite-corrected plasma input functions. The mean 1TKA parameter values from 11 subjects were then used to generate noise-free TAC data as described below in Step 3.
Step 2: ROI TAC percent noise was calculated based on deviations from 1TKA fitting (100×SD/mean) for the latter portion of the TAC (60 to 120 min) and the mean percent noise over these 11 subjects was calculated (Table 2).

central M2 cholinergic receptors, sequence (P08172 whole entry): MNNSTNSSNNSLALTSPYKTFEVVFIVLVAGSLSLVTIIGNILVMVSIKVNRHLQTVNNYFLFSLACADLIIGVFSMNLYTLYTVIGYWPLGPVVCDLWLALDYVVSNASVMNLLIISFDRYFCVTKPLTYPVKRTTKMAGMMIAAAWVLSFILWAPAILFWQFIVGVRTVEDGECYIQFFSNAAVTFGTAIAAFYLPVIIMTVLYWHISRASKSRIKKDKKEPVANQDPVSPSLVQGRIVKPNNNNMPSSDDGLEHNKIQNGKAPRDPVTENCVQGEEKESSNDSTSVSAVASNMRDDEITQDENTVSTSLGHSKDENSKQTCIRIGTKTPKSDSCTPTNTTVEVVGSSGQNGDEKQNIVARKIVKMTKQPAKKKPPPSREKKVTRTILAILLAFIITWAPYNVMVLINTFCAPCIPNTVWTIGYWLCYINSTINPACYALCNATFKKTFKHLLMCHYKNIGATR

CN1CCC=C(c2nsnc2SCCC[18F])C1 [[^18F]FP-TZTP, 3-(3-(3-[18F]Fluropropyl)thio-1,2,5-thiadiazol-4-yl)-1,2,5,6 tetrahydro-1-methylpyridine]
K1 (rate constant for transfer from plasma to the tissue) (cerebellum (input region, K'1)): 0.466 mL/min/cm^3 | VT (total distribution volume) (cerebellum (input region, V'T)): 43 mL/cm^3 | K2 (tissue clearance rate constant) (cerebellum (input region, k'2)): 0.0110 min⁻¹ | k2/k′2 (thalamus k2 relative to cerebellum k′2): 1.60 | K1 (rate constant for transfer from plasma to the tissue) (thalamus): 0.506 mL/min/cm^3 | K2 (tissue clearance rate constant) (thalamus): 0.0176 min⁻¹ | VT (total distribution volume) (thalamus): 29 mL/cm^3
